Species: Rattus norvegicus
Experiment: Open TG-GATES - Regimen: Daily Repeat
Type: toxicity, organism-based, Sprague-Dawley
Parameters: regimen Daily Repeat, gender Male, age 6 weeks
Details: in vivo, po, route gavage; for gamma-GTP / ALP / ALT / AST / BUN / CRE / Ca / Cl / DBIL / GLC / IP / K / LDH / Na / PL / RALB / TBIL / TC / TG / TP: tissue Plasma; for APTT / Bas / Eos / Fbg / Hb / Ht / Lym / MCH / MCHC / MCV / Mono / Neu / PT / Plat / RBC / Ret / WBC: tissue Blood; for KIDNEY_L / KIDNEY_R / KIDNEY_TOTAL: tissue Kidney; for LIVER: tissue Liver
[1] = 100 mg/kg, 72 h, dose level Low, time 3 day
[2] = 100 mg/kg, […], dose level Low, time 7 day
[3] = 100 mg/kg, […], dose level Low, time 14 day
[4] = 100 mg/kg, […], dose level Low, time 28 day

## COC(=O)C1=C(C)NC(C)=C(C(=O)OC)C1c1ccccc1[N+](=O)[O-] [NIFEDIPINE]
0 mg/kg, […], dose level Control, time 28 day
  gamma-GTP: 0.8 IU/L
[1]
  TERMINAL_BW: 223 g
  APTT: 17.6 s
  Bas: 0%
  Eos: 1%
  Fbg: 281.6 mg/dL
  Hb: 13.6 g/dL
  Ht: 42.3%
  Lym: 71.4%
  MCH: 20.7 pg
  MCHC: 32.3%
  MCV: 64 fL
  Mono: 3.4%
  Neu: 23.6%
  PT: 13.8 s
  Plat: 130.7 x10_4/uL
  RBC: 660.2 x10_4/ul
  Ret: 9.2%
  WBC: 96 x10_2/uL
  KIDNEY_L: 0.9 g
  KIDNEY_R: 0.9 g
  KIDNEY_TOTAL: 1.9 g
  LIVER: 11 g
  ALP: 1508 IU/L
  ALT: 46.6 IU/L
  AST: 65.8 IU/L
  BUN: 15 mg/dL
  CRE: 0.2 mg/dL
  Ca: 10.9 mg/dL
  Cl: 107 meq/L
  DBIL: 0.014 mg/dL
  GLC: 173.4 mg/dL
  IP: 6.8 mg/dL
  K: 4.5 meq/L
  LDH: 88.6 IU/L
  Na: 143.2 meq/L
  PL: 152 mg/dL
  RALB: 2.7 g/dL
  TBIL: 0.028 mg/dL
  TC: 82.2 mg/dL
  TG: 98.8 mg/dL
  TP: 5.7 g/dL
  gamma-GTP: 1 IU/L
[2]
  TERMINAL_BW: 261.8 g
  APTT: 14.8 s
  Bas: 0.2%
  Eos: 1.4%
  Fbg: 283.4 mg/dL
  Hb: 13.8 g/dL
  Ht: 42.1%
  Lym: 73%
  MCH: 20.9 pg
  MCHC: 32.8%
  MCV: 63.8 fL
  Mono: 3%
  Neu: 21.8%
  PT: 13.7 s
  Plat: 125.1 x10_4/uL
  RBC: 659.6 x10_4/ul
  Ret: 6.8%
  WBC: 105.6 x10_2/uL
  KIDNEY_L: 1.1 g
  KIDNEY_R: 1.1 g
  KIDNEY_TOTAL: 2.1 g
  LIVER: 13.2 g
  ALP: 1407 IU/L
  ALT: 47 IU/L
  AST: 67.4 IU/L
  BUN: 17.4 mg/dL
  CRE: 0.2 mg/dL
  Ca: 10.7 mg/dL
  Cl: 106.2 meq/L
  DBIL: 0.014 mg/dL
  GLC: 174.8 mg/dL
  IP: 6.8 mg/dL
  K: 4.2 meq/L
  LDH: 86.4 IU/L
  Na: 143.8 meq/L
  PL: 144 mg/dL
  RALB: 2.7 g/dL
  TBIL: 0.028 mg/dL
  TC: 77.4 mg/dL
  TG: 93.4 mg/dL
  TP: 5.9 g/dL
  gamma-GTP: 1 IU/L
[3]
  TERMINAL_BW: 322.2 g
  APTT: 19 s
  Bas: 0.2%
  Eos: 1%
  Fbg: 260.4 mg/dL
  Hb: 14.5 g/dL
  Ht: 43.7%
  Lym: 72.4%
  MCH: 21.1 pg
  MCHC: 33.2%
  MCV: 63.6 fL
  Mono: 2.8%
  PT: 14 s
  Plat: 113.8 x10_4/uL
  RBC: 688 x10_4/ul
  Ret: 5.4%
  WBC: 110.8 x10_2/uL
  KIDNEY_L: 1.2 g
  KIDNEY_R: 1.2 g
  KIDNEY_TOTAL: 2.5 g
  LIVER: 15 g
  ALP: 1646.4 IU/L
  ALT: 44.4 IU/L
  AST: 71.4 IU/L
  BUN: 17.6 mg/dL
  CRE: 0.2 mg/dL
  Ca: 11 mg/dL
  Cl: 105.8 meq/L
  DBIL: 0.012 mg/dL
  GLC: 177.4 mg/dL
  IP: 6.7 mg/dL
  K: 4.2 meq/L
  LDH: 46.2 IU/L
  Na: 143.2 meq/L
  PL: 149.6 mg/dL
  RALB: 2.7 g/dL
  TBIL: 0.026 mg/dL
  TC: 73.6 mg/dL
  TP: 5.9 g/dL
  gamma-GTP: 1 IU/L
[4]
  TERMINAL_BW: 378.4 g
  APTT: 17.6 s
  Bas: 0%
  Eos: 1%
  Fbg: 281.6 mg/dL
  Hb: 13.6 g/dL
  Ht: 42.3%
  Lym: 71.4%
  MCH: 20.7 pg
  MCHC: 32.3%
  MCV: 64 fL
  Mono: 3.4%
  Neu: 23.6%
  PT: 13.8 s
  Plat: 130.7 x10_4/uL
  RBC: 660.2 x10_4/ul
  Ret: 9.2%
  WBC: 96 x10_2/uL
  KIDNEY_L: 1.3 g
  KIDNEY_R: 1.3 g
  KIDNEY_TOTAL: 2.6 g
  LIVER: 15.4 g
  ALP: 1032.8 IU/L
  ALT: 39.6 IU/L
  AST: 71.2 IU/L
  BUN: 17.2 mg/dL
  CRE: 0.3 mg/dL
  Ca: 10.4 mg/dL
  Cl: 107.4 meq/L
  DBIL: 0.012 mg/dL
  GLC: 167.8 mg/dL
  IP: 5.6 mg/dL
  K: 3.9 meq/L
  LDH: 61.8 IU/L
  Na: 143.8 meq/L
  PL: 135 mg/dL
  RALB: 2.8 g/dL
  TBIL: 0.024 mg/dL
  TC: 64.6 mg/dL
  TG: 117.8 mg/dL
  TP: 6.1 g/dL

Source: ChEMBL document CHEMBL3885861, “Open TG-GATES”
